# Measurements taken from patent US8653276B2 (SANOFI, priority 2008, dated 2014).
# pIC50: −log10 of the molar value. Where a name gives a salt, the structure may show the parent alone.
# Molecular target: T1, human GPR14 receptor (Homo sapiens, UniProt Q9UKP6)
# T1 sequence (Q9UKP6 1-389): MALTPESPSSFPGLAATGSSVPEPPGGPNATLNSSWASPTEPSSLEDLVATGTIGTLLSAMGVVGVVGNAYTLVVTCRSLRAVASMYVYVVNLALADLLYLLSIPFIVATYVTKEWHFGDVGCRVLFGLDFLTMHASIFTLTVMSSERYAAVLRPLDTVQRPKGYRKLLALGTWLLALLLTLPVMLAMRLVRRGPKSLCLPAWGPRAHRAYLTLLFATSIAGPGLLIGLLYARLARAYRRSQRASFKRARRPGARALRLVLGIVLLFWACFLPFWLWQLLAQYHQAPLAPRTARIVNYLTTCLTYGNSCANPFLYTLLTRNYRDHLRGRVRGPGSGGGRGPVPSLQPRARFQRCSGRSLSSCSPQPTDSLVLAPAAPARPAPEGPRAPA
# Assay: cell-based
# Method: GPR14 is a 7-domain transmembrane receptor coupled to Gq. Its activation with a specific ligand causes an increase in Ca^2+ in the cell via the PLC (phospholipase C), IP3 (inositol-1,4,5-triphosphate) DAG (diacylglycerol) route.
# The increase in Ca^2+ in the cell is measured using a Fluo4AM permeating probe (monoexcitation, monoemission probe) which binds to the free Ca^2+ and emits at 520 nm. The free probe is nonfluorescent in the absence of Ca^2+.
# Experiment Plan • 1) Seeding of the cells on D-1 (day-1) or D-2 • 2) Incorporation/charge (D0) of the probe (1 h) • 3) Addition of the products to the FlipR and measurement • 4) Addition of the ligand to the FlipR and measurement in the presence of the products • 5) Processing and exportation of the data
# The cells are cultured in whole medium in a T225 flask. For the experiments, the cells are subcultured in 200 μl of culture medium in transparent-bottomed black 96-well plates at a rate of 60 000 cells/well for a use on D+1 or 40 000 cells/well for a use on D+2.
# Fluo-4AM is prepared at 20 mM and then divided into aliquots (50 μl) and stored at −20° C. sheltered from light. A solution of pluronic acid at 200 mg/ml in DMSO is also prepared (it keeps for one week at room temperature sheltered from light).
# The cells are charged with the mixture of Fluo-4AM+pluronic acid (aliquots of 50 μl+50 μl of pluronic acid) diluted to 1/100 in the measuring buffer.
# After washing the wells with 150 μl of measuring buffer (cf. appendix), the cells are then charged in the following manner: • distribution of 100 μl of measuring buffer into each well • addition of 10 μl of the Fluo-4AM+pluronic acid mixture diluted to 1/100.
# The cells are incubated for 1 hour at 37° C. sheltered from light, in an incubator in the presence of 5% CO2.
# The cells are then washed 3 times with 150 μl of measuring buffer to remove the excess probe. A volume of 150 μl of buffer is added to each well at the end of washing.
# After incubating the plates for 20 minutes at room temperature sheltered from light, they are placed in the FlipR for the fluorescence measurement.
# The basic level of incorporation of the Fluo-4 is checked for each plate (sd<10%) before the first injection.
# After stabilizing the base signal, the GPR14 inhibitor compounds are injected via the FlipR in a volume of 50 μl using a dilution plate prepared with Biomek 2000 as measuring buffer.
# The data are recorded continuously throughout the experiment.
# For each plate, the base fluorescence before injection of the compounds is normalized via the “spatial uniformity correction” function of the FlipR. […] In each plate, a series of wells is treated with urotensin alone in the absence of inhibitor compound.
# The percentage of inhibition for each concentration of product is calculated as described below: Inhibition(%)=100×(delta Uro II−delta product)/delta Uro II
row,Compound,pIC50
1,"COC(=O)C1(NC(=O)c2ccc(-c3ncc(Cl)cc3Cl)c(-c3ccc(Cl)c(OCCCN(C)C)c3)n2)CCCCC1 [Compound 1, methyl 1-{[(3,5-dichloro-2′-{4-chloro-3-[3-(dimethylamino)propoxy]phenyl}-2,3′-bipyridin-6′-yl)carbonyl]amino}cyclohexanecarboxylate]",5.80
2,"COC(=O)C1(NC(=O)c2ccc(-c3ccc(O)cc3C)c(-c3ccc(Cl)c(OCCCN(C)C)c3)n2)CCCCC1 [Compound 2, methyl 1-({[6-{4-chloro-3-[3-(dimethylamino)propoxy]phenyl}-5-(4-hydroxy-2-methylphenyl)pyridin-2-yl]carbonyl}amino)cyclohexanecarboxylate]",5.77
3,"COC(=O)C1(NC(=O)c2ccc(-c3ccccc3C)c(-c3ccc(Cl)c(OCCCN(C)C)c3)n2)CCCCC1 [Compound 4, methyl 1-({[6-{4-chloro-3-[3-(dimethylamino)propoxy]phenyl}-5-(2-methylphenyl)pyridin-2-yl]carbonyl}amino)cyclohexanecarboxylate]",6.20
4,"COC(=O)C1(NC(=O)c2ccc(-c3ncc(C)cc3Cl)c(-c3ccc(Cl)c(OCCCN(C)C)c3)n2)CCCCC1 [Compound 5, methyl 1-{[(3-chloro-2′-{4-chloro-3-[3-(dimethylamino)propoxy]phenyl}-5-methyl-2,3′-bipyridin-6′-yl)carbonyl]amino}cyclohexanecarboxylate]",6.27
5,"COC(=O)C1(NC(=O)c2ccc(-c3cc(C4CC4)ccc3C)c(-c3ccc(Cl)c(OCCCN(C)C)c3)n2)CCCCC1 [Compound 7, methyl 1-({[6-{4-chloro-3-[3-(dimethylamino)propoxy]phenyl}-5-(5-cyclopropyl-2-methylphenyl)pyridin-2-yl]carbonyl}amino)cyclohexanecarboxylate]",6.48
6,"CCCOc1ccc(Cl)c(-c2ccc(C(=O)NC3(C(=O)OC)CCCCC3)nc2-c2ccc(Cl)c(OCCCN(C)C)c2)c1 [Compound 9, methyl 1-({[6-{4-chloro-3-[3-(dimethylamino)propoxy]phenyl}-5-(2-chloro-5-propoxyphenyl)pyridin-2-yl]carbonyl}amino)cyclohexanecarboxylate]",5.85
7,"COC(=O)C1(NC(=O)c2ccc(-c3cc4c(cc3C)OCO4)c(-c3ccc(Cl)c(OCCCN(C)C)c3)n2)CCCCC1 [Compound 11, methyl 1-({[6-{4-chloro-3-[3-(dimethylamino)propoxy]phenyl}-5-(6-methyl-1,3-benzodioxol-5-yl)pyridin-2-yl]carbonyl}amino)cyclohexanecarboxylate]",6.25
8,"COC(=O)C1(NC(=O)c2ccc(-c3ncc(C)cc3C)c(-c3ccc(Cl)c(OCCCN(C)C)c3)n2)CCCCC1 [Compound 13, methyl 1-{[(2′-{4-chloro-3-[3-(dimethylamino)propoxy]phenyl}-3,5-dimethyl-2,3′-bipyridin-6′-yl)carbonyl]amino}cyclohexanecarboxylate]",6.07
9,"COC(=O)C1(NC(=O)c2ccc(-n3nc(C)cc3C)c(-c3ccc(Cl)c(OCCCN(C)C)c3)n2)CCCCC1 [Compound 18, methyl 1-({[6-{4-chloro-3-[3-(dimethylamino)propoxy]phenyl}-5-(3,5-dimethyl-1H-pyrazol-1-yl)pyridin-2-yl]carbonyl}amino)cyclohexanecarboxylate]",5.97
10,"COC(=O)C1(NC(=O)c2cnc(-c3ccc(C)cc3C)c(-c3ccc(Cl)c(OCCCN(C)C)c3)n2)CCCCC1 [Compound 20, methyl 1-({[6-{4-chloro-3-[3-(dimethylamino)propoxy]phenyl}-5-(2,4-dimethylphenyl)pyrazin-2-yl]carbonyl}amino)cyclohexanecarboxylate]",6.94
11,"CCOc1ccc(Cl)c(-c2ncc(C(=O)N[C@@H](CC(=O)OC)C(C)(C)C)nc2-c2ccc(Cl)c(OCCCN(C)C)c2)c1 [Compound 24, methyl(3S)-3-({[6-{4-chloro-3-[3-(dimethylamino)propoxy]phenyl}-5-(2-chloro-5-ethoxyphenyl)pyrazin-2-yl]carbonyl}amino)-4,4-dimethylpentanoate]",6.99
12,"COC(=O)C1(NC(=O)c2ccc(-c3ccccc3Cl)c(-c3ccc(Cl)c(OCCCN(C)C)c3)n2)C2CC3CC(C2)CC1C3 (stereo not shown) [Compound 26, methyl 2-({[6-{4-chloro-3-[3-(dimethylamino)propoxy]phenyl}-5-(2-chlorophenyl)pyridin-2-yl]carbonyl}amino)adamantane-2-carboxylate]",6.77
13,"CCOC(=O)C[C@H](NC(=O)c1ccc(-c2ccccc2C)c(-c2ccc(Cl)c(OCCCN(C)C)c2)n1)C(C)(C)C [Compound 29, ethyl(3S)-3-({[6-{4-chloro-3-[3-(dimethylamino)propoxy]phenyl}-5-(2-methylphenyl)pyridin-2-yl]carbonyl}amino)-4,4-dimethylpentanoate]",6.60
14,"CNC(=O)C[C@H](NC(=O)c1ccc(-c2ccccc2C)c(-c2ccc(Cl)c(OCCCN(C)C)c2)n1)C(C)(C)C [Compound 33, 6-{4-chloro-3-[3-(dimethylamino)propoxy]phenyl}-N-{(1S)-2,2-dimethyl-1-[2-(methylamino)-2-oxoethyl]propyl}-5-(2-methylphenyl)pyridine-2-carboxamide]",6.35
15,"COC(=O)[C@]1(NC(=O)c2ccc(-c3ccccc3C)c(-c3ccc(Cl)c(OCCCN(C)C)c3)n2)CC[C@@H](O)CC1 [Compound 42, methyl cis-1-({[6-{4-chloro-3-[3-(dimethylamino)propoxy]phenyl}-5-(2-methylphenyl)pyridin-2-yl]carbonyl}amino)-4-hydroxycyclohexanecarboxylate]",7.02
16,"COC(=O)[C@]1(NC(=O)c2ccc(-c3ncc(C)cc3Cl)c(-c3ccc(Cl)c(OCCCN(C)C)c3)n2)CC[C@@H](O)CC1 [Compound 44, methyl cis-1-{[(3-chloro-2′-{4-chloro-3-[3-(dimethylamino)propoxy]phenyl}-5-methyl-2,3′-bipyridin-6′-yl)carbonyl]amino}-4-hydroxycyclohexanecarboxylate]",6.18

# System: not given
# Assay: not given
row,Compound,melting point [°C]
1,Cc1ccccc1-c1ccc(C(=O)N[C@@H](CCO)C(C)(C)C)nc1-c1ccc(Cl)c(OCCCN(C)C)c1 (as salt: hydrochloride),93
2,"COC(=O)C1(NC(=O)c2ccc(-c3ncc(Cl)cc3Cl)c(-c3ccc(Cl)c(OCCCN(C)C)c3)n2)CCCCC1 (as salt: hydrochloride) [Compound 1, methyl 1-{[(3,5-dichloro-2′-{4-chloro-3-[3-(dimethylamino)propoxy]phenyl}-2,3′-bipyridin-6′-yl)carbonyl]amino}cyclohexanecarboxylate]",168
3,"COC(=O)C1(NC(=O)c2ccc(-c3ccc(O)cc3C)c(-c3ccc(Cl)c(OCCCN(C)C)c3)n2)CCCCC1 (as salt: hydrochloride) [Compound 2, methyl 1-({[6-{4-chloro-3-[3-(dimethylamino)propoxy]phenyl}-5-(4-hydroxy-2-methylphenyl)pyridin-2-yl]carbonyl}amino)cyclohexanecarboxylate]",270
4,"COC(=O)C1(NC(=O)c2ccc(-c3ccccc3C)c(-c3ccc(Cl)c(OCCCN(C)C)c3)n2)CCCCC1 (as salt: hydrochloride) [Compound 4, methyl 1-({[6-{4-chloro-3-[3-(dimethylamino)propoxy]phenyl}-5-(2-methylphenyl)pyridin-2-yl]carbonyl}amino)cyclohexanecarboxylate]",115
5,"COC(=O)C1(NC(=O)c2ccc(-c3ncc(C)cc3Cl)c(-c3ccc(Cl)c(OCCCN(C)C)c3)n2)CCCCC1 (as salt: hydrochloride) [Compound 5, methyl 1-{[(3-chloro-2′-{4-chloro-3-[3-(dimethylamino)propoxy]phenyl}-5-methyl-2,3′-bipyridin-6′-yl)carbonyl]amino}cyclohexanecarboxylate]",152
6,"COC(=O)C1(NC(=O)c2ccc(-c3cc(C4CC4)ccc3C)c(-c3ccc(Cl)c(OCCCN(C)C)c3)n2)CCCCC1 (as salt: hydrochloride) [Compound 7, methyl 1-({[6-{4-chloro-3-[3-(dimethylamino)propoxy]phenyl}-5-(5-cyclopropyl-2-methylphenyl)pyridin-2-yl]carbonyl}amino)cyclohexanecarboxylate]",114
7,"CCCOc1ccc(Cl)c(-c2ccc(C(=O)NC3(C(=O)OC)CCCCC3)nc2-c2ccc(Cl)c(OCCCN(C)C)c2)c1 (as salt: hydrochloride) [Compound 9, methyl 1-({[6-{4-chloro-3-[3-(dimethylamino)propoxy]phenyl}-5-(2-chloro-5-propoxyphenyl)pyridin-2-yl]carbonyl}amino)cyclohexanecarboxylate]",117
8,"COC(=O)C1(NC(=O)c2ccc(-c3cc4c(cc3C)OCO4)c(-c3ccc(Cl)c(OCCCN(C)C)c3)n2)CCCCC1 (as salt: hydrochloride) [Compound 11, methyl 1-({[6-{4-chloro-3-[3-(dimethylamino)propoxy]phenyl}-5-(6-methyl-1,3-benzodioxol-5-yl)pyridin-2-yl]carbonyl}amino)cyclohexanecarboxylate]",138
9,"COC(=O)C1(NC(=O)c2ccc(-c3ncc(C)cc3C)c(-c3ccc(Cl)c(OCCCN(C)C)c3)n2)CCCCC1 (as salt: hydrochloride) [Compound 13, methyl 1-{[(2′-{4-chloro-3-[3-(dimethylamino)propoxy]phenyl}-3,5-dimethyl-2,3′-bipyridin-6′-yl)carbonyl]amino}cyclohexanecarboxylate]",176
